This note sets out measurements from patent US20250352512A2, “C4-S[…] DERIVATIVES AND METHODS OF USING” (priority 2022, published 2025).

The target in series [1] is T1, 5-HT1A receptor (Homo sapiens, UniProt P08908).
T1 construct: host or cells: CHO-K1
T1 sequence (P08908 1-422): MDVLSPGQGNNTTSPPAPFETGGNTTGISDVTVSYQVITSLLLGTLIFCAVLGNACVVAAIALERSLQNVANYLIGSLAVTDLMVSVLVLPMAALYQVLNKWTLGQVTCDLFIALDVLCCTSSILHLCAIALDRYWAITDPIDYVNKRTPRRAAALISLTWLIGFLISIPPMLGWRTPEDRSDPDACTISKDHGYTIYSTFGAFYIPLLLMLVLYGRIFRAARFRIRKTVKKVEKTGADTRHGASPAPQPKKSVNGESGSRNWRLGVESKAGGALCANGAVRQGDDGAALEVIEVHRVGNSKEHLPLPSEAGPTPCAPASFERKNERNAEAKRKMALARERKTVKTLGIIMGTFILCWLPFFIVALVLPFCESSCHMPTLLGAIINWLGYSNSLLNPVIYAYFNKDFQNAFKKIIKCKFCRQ
The class given is cell-based. The settings on record: for 5-HT1A receptor modulation: comparison of +5-HT1A with -5-HT1A cultures, 4 mM forskolin.

For series [2], the target named is T2, 5-HT2A receptor (5-HT2AR) (Mus musculus, UniProt P35363).
T2 construct: tissue Charles River; host or cells: living C57BL/6-Elite mice (neuronal receptor)
Briefly: Drug-induced Head Twitch Response (HTR) in mice. The class given is in vivo. The conditions noted are these: C57BL/6-Elite mice, i.p. 1 mg/kg, 15-to-30-minute window following administration.

Series [3] concerns the target 5-HT2A receptor (Homo sapiens, UniProt P28223). The series can be described thus: [3H]ketanserin radioligand competition binding assay (SPA). The settings on record: fixed (1 nM) [3H]ketanserin, membranes containing 5-HT2A. On the technique in general: In a radioligand displacement assay an active substance lowers the binding of a labelled ligand.
The nature of series [4]: Stability assay in enzyme-free control buffer. The class given is in vitro ADME. The conditions noted are these: enzyme-free buffer pH 7.4, 37° C., 2 hours. From the text: (§1) A fundamental evaluation in drug development is the assessment of absorption, distribution, metabolism, excretion, and pharmacokinetics (ADME/PK) (Eddershaw et al., 2000, Drug Discovery Today 5(9): 409-414). […] Drug stability upon exposure to human liver microsomes and liver S9 cellular fractions is a common in vitro assay to approximate in vivo, liver-based drug metabolism (Richardson et al., 2016 Drug Metabolism Letters 10:83-90). First-pass metabolism is also often approximated in vitro using intestinal microsome and cellular S9 fractions (Hatley et al., 2017, Biopharmaceuticals & Drug Disposition, 38(2):155-160). […] Supernatants were analyzed for the presence of candidate prodrugs (parent molecule) and psilocin (the predicted metabolite) using Orbitrap LC-MS (Thermo Scientific) using previously described methods (Menendez-Perdomo et al., 2021, J. Mass Spectrom., 56: e4683). […] Assay concentrations (μM) of both parent ‘prodrug’ molecule and psilocin metabolite, as quantified through LC-MS using routine standard curve procedures, were plotted as functions of assay time (minutes). The metabolism rate (TI/2) was determined from the metabolism curve plot using the one phase decay feature of GraphPad PRISM software (Version 9.2.0). The quantity of parent prodrug at time zero was set as 100%. […]

Series [5] in a line: Metabolic stability / psilocin release in human AB serum. The settings on record: 10% human AB serum. Format: in vitro ADME.
Excerpt: as §1

A short description of series [6]: Metabolic stability / psilocin release in human liver microsomes. Format: in vitro ADME. The conditions noted are these: 2.5 μM, 400 μg/ml HLM, NADPH, 37° C.
Excerpt: as §1

The nature of series [7]: Metabolic stability / psilocin release in human liver S9 fractions. Format: in vitro ADME. The conditions noted are these: 2.5 μM, 400 μg/ml HLS9, NADPH, 37° C.
Excerpt: as §1

Setting [8] is: +5-HT1A cells stimulated with 4 mM forskolin.

Like-named read-outs stand apart in the source and are kept apart here.

T2 sequence (P35363 whole entry): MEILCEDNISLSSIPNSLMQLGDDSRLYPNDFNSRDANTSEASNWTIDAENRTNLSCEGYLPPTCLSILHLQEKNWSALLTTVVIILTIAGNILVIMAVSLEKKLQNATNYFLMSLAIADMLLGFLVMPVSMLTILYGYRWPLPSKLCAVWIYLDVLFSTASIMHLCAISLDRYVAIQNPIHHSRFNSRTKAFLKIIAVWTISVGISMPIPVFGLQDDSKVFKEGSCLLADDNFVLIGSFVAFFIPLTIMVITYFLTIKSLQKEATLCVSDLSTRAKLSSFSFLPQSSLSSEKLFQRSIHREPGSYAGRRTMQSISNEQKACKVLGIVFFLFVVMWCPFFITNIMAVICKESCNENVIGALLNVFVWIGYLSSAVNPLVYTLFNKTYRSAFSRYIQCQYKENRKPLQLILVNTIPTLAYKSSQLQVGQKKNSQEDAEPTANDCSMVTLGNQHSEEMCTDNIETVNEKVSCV
5-HT2A receptor, sequence (P28223 whole entry): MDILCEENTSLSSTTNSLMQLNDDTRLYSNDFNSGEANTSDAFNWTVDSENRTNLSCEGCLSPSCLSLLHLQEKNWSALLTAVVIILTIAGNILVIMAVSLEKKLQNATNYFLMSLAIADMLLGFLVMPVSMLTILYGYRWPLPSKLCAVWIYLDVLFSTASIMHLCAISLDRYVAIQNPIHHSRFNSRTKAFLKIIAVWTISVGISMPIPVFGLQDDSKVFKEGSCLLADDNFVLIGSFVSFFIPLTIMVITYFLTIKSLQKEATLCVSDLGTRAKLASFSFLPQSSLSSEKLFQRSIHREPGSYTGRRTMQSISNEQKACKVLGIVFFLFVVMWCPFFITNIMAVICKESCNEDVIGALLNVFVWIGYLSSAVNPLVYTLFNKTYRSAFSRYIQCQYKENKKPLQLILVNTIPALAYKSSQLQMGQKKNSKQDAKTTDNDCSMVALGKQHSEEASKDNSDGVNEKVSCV

As for `CN(C)CCc1c[nH]c2cccc(O[Si](c3ccccc3)(c3ccccc3)C(C)(C)C)c12` [A(III)], in series [1], the 5-HT1A receptor modulation result is given as “suggests receptor modulation at higher ligand concentrations”. Also, the “incidences of Head Twitch Response (HTR) relative to vehicle” value in series [2] is given as “Elevated incidences of HTR”.
For `CN(C)CCc1c[nH]c2cccc(OC(=O)OCC(Cl)(Cl)Cl)c12` [B(IV)] the same measures were “suggests no receptor modulation” and “Elevated incidences of HTR”.
As to `CCCCCCOC(=O)Oc1cccc2[nH]cc(CCN(C)C)c12` [B(V)], in series [1], the 5-HT1A receptor modulation entry is reported as “suggests no receptor modulation”.
In the case of `CCC(=O)OCOc1cccc2c1c(CCN(C)C)cn2C(=O)CC` [D(XIX)], the 5-HT1A receptor modulation result in series [1] was “suggests significant receptor modulation”. For the same compound, the “incidences of Head Twitch Response (HTR) relative to vehicle” value in series [2] is given as “Elevated incidences of HTR”.
Taken in the same sequence, the figures for `CN(C)CCc1c[nH]c2cccc(OP3(=O)OCC(C)(C)CO3)c12` [F(II)] were “reveals receptor modulation” and “Elevated incidences of HTR”.
As to `CN(C)CCc1c[nH]c2cccc(O)c12` [psilocin, reference compound], the “cAMP levels with increasing doses of ligand” value in series [1] (setting [8]) is “reduction in cAMP levels”. Further, the “competition binding at the 5-HT2A receptor” value in series [3] was “binding”.
Regarding `CN(C)CCc1c[nH]c2cccc(OP(=O)(O)O)c12` [psilocybin], in series [4], the “stability in assay buffer” value is given as “stability of psilocybin was confirmed in assay buffer”. Also, in series [5], the “stability and conversion to psilocin in serum” value is on record as “stable in serum with no conversion to psilocin”. In series [6], the “stability and conversion to psilocin in liver fractions (HLM)” value is reported as “stable in liver fractions with no conversion to psilocin”. In addition, the “stability and conversion to psilocin in liver fractions (HLS9)” value in series [7] is “stable in liver fractions with no conversion to psilocin”.
As to `NCCc1c[nH]c2ccc(O)cc12` [serotonin, reference compound], in series [1], the “cAMP levels with increasing doses of ligand” value is on record as “reduction in cAMP levels”.
Take `N[C@@H](Cc1c[nH]c2ccccc12)C(=O)O` [tryptophan, reference compound]: the “cAMP levels with increasing doses of ligand” value in series [1] (setting [8]) was “no reduction in cellular cAMP levels”. Further, the “competition binding at the 5-HT2A receptor” value in series [3] is recorded as “no binding”.
